{"source": "patent US10828368B2", "about": "“Therapeutic treatments using centhaquin” (MIDWESTERN UNIVERSITY, priority 2009, dated 2020)", "key": {"[1]": {"test_system": "rats in the hemorrhagic shock model", "experiment": "Hemorrhagic shock model, resuscitation with Ringer's lactate and centhaquin", "format": "in vivo, rat"}, "[2]": {"experiment": "Arterial blood gas analysis before and one hour after drug", "format": "in vivo, rat", "details": "for changes in arterial blood pH, pO2, pCO2, Na^+, K^+, lactate and hematocrit: before versus one hour after clonidine 90 μg/kg or centhaquin 0.45 mg/kg; for Hct / K^+ / Na^+ / arterial blood pH / pCO2 / pO2: one hour after clonidine 90 μg/kg or centhaquin 0.45 mg/kg", "from_the_text": "Arterial blood pH, pO2, pCO2, Na^+, K^+, and lactate were monitored prior to and after drug administration. Blood samples were drawn from the arterial cannula using blood gas sampling syringes (Innovative Medical Technologies, Inc. Leawood, Kans.) and analyzed using a GEM Premier 3000 unit (Instrument Laboratory, Lexington, Mass.).\nBlood samples were drawn from the arterial cannula using blood gas sampling syringes (Innovative Medical Technologies, Inc. Leawood, Kans.) and analyzed using a GEM Premier 3000 unit (Instrument Laboratory, Lexington, Mass.)."}, "[3]": {"details": "once a day for 15 days; cited from earlier work"}, "[4]": {"test_system": "urethane anaesthetized rats", "experiment": "Cardiovascular response (MAP, PP, HR) of drugs in urethane anaesthetized rats", "format": "in vivo, rat", "details": "for decrease in MAP / reduction in HR / fall in MAP / decrease in PP: compared to baseline; for dose-response effect on MAP, PP and HR: clonidine 10, 30, 90 μg/kg i.v., centhaquin 0.05, 0.15, 0.45 mg/kg i.v.", "from_the_text": "Rats were anaesthetized with urethane (1.5 g/kg i.p.) and prepared for the determination of hemodynamic parameters (Gulati and Srimal, 1993; Gulati et al., 1997b). The anesthetized rats were shaved and immobilized to prepare for cannulation. A 2-3 cm incision was made above the femoral vein and artery, and the vessels were dissected and cleaned. The left femoral vein was cannulated (PE-50 tubing, Clay Adams, Parsipanny, N.J.) and secured for drug administration. An ultra-miniature Pressure transducer SPR-320 (2F Polyurethane), with a single pressure sensor side mounted at the tip (Millar Instruments, Houston, Tex.), was inserted in the left femoral artery to acquire the hemodynamic signals. Pressure transducer was connected to bridge amplifier (ML221 Bridge Amp; AD Instruments, Mountain View, Calif., USA) with Viking connector (AEC-10C) and the signals were continuously acquired at a sampling rate of 1000 S^−1 using Millar PowerLab 16/30 data acquisition system (AD Instruments, Mountain View, Calif., USA). MAP, HR, and PP were determined and analyzed with LabChart-5.00 software program (Millar Instruments). After the experiment was completed, the animals were euthanized with higher dose of urethane (3 gm/kg).\nThe animals were allowed to stabilize for at least 20 min following surgical procedures.\nIn the above studies, all drugs were injected through the left femoral vein and changes in MAP, HR, and PP after clonidine and centhaquin injection were recorded for 1 hour using Millar PowerLab 16/30 data acquisition system."}, "[5]": {"test_system": "mice", "details": "intraperitoneal; cited from earlier work"}, "[6]": {"test_system": "5-HT1 receptors in the medulla", "details": "cited from earlier work"}, "[7]": {"test_system": "rats", "details": "cited from earlier work"}, "[8]": {"test_system": "norepinephrine release", "details": "centhaquin 0.1, 1.0 and 10.0 μg/ml; cited from earlier work"}, "[9]": {"test_system": "α-adrenergic receptors in the hypothalamus and medulla", "details": "chronic administration in rats; with hypotension and bradycardia; cited from earlier work"}, "[10]": {"test_system": "rats", "experiment": "Tail-flick latency analgesia (FIGS. 9-13)", "format": "in vivo, rat", "details": "iv"}, "[11]": {"test_system": "α2-adrenergic receptors", "details": "higher for α2; cited from earlier work"}, "[12]": {"test_system": "rat abdominal aortic ring", "experiment": "Clonidine response on the abdominal aortic ring", "details": "for EC50: Rattus norvegicus, read-out: ED50 value, aortic ring contraction", "protocol": "The abdominal aorta was isolated and dissected out from urethane (1.5 g·kg^−1 i.p.) anesthetized rats and was transferred to Krebs bicarbonate buffer pH 7.4 (composition in mM, NaCl, 112.0; KCl, 4.7; KH2PO4, 1.2; MgSO4, 1.2; CaCl2, 2.5; NaHCO3, 25.0; glucose, 11.0) with continuous supply of 95% O2 and 5% CO2 at 37±1° C. The tissue was cut into ring segments (3 mm in length) and mounted in organ baths using 10 mm Radnoti glass ring supports. Extra care was taken while cutting and mounting the ring segment to prevent loss of endothelial layer. Tissue was equilibrated for 45 min by applying 2 g of tension with regular buffer change after every 15 min. Vessels were pre-contracted with 100 mM KCl to determine the viability. Clonidine-induced contractions of aortic ring were measured using Radnoti 8 unit tissue bath (Radnoti Glass Technology, Monrovia, Calif.) and the force transducer coupled with a Grass P7D polygraph. The dose response was recorded for 0.25, 0.5, 1, 2, 4, 6, 8, and 10 μM of clonidine with or without ET-1 (4 nM) treatment and ED50 value was calculated. Experiments were performed in Group 1: Vehicle+Clonidine (0.25 to 10 μM); and Group 2: ET-1 (4 nM)+Clonidine (0.25 to 10 μM) using (n=6) rats in each group."}}, "note": "Entries after “also recorded” stand apart in the source; their conditions may differ. Where two headings read alike, the source gives them in different places."}
{"smiles": "Cc1cccc(N2CCN(CCc3ccc4ccccc4n3)CC2)c1", "note": "[Centhaquin]", "values": [{"measurement": "pressure-volume loops", "setting": "[1]; LR-100 and centhaquin 0.05 mg/kg compared with LR-100", "result": "improvement"}, {"measurement": "blood lactate, comparison of centhaquin doses", "setting": "[1]; centhaquin 0.05-0.45 mg/kg", "result": "lower doses of centhaquin were more effective than the higher doses"}, {"measurement": "blood lactate", "setting": "[1]; centhaquin 0.05-0.45 mg/kg with Ringer's lactate", "result": "drop in lactate"}, {"measurement": "survival time", "setting": "[1]; centhaquin administered with LR-100", "result": "increase in survival time"}, {"measurement": "changes in arterial blood pH, pO2, pCO2, Na^+, K^+, lactate and hematocrit", "setting": "[2]", "result": "did not affect arterial blood pH, pO2, and pCO2"}, {"measurement": "changes in arterial blood pH, pO2, pCO2, Na^+, K^+, lactate and hematocrit", "setting": "[2]; listed as centhaquin", "result": "no significant changes"}, {"measurement": "Hct", "setting": "[2]", "result": "52 ± 1", "unit": "%"}, {"measurement": "K^+", "setting": "[2]", "result": "4.0 ± 0.2", "unit": "mmol/L"}, {"measurement": "Na^+", "setting": "[2]", "result": "140 ± 1", "unit": "mmol/L"}, {"measurement": "arterial blood pH", "setting": "[2]", "result": "7.27 ± 0.02"}, {"measurement": "pCO2", "setting": "[2]", "result": "53 ± 2", "unit": "mmHg"}, {"measurement": "pO2", "setting": "[2]", "result": "96 ± 9", "unit": "mmHg"}, {"measurement": "potentiation or tolerance on repeated administration", "setting": "[3]", "result": "did not produce any potentiation or tolerance"}, {"measurement": "decrease in MAP", "setting": "[4]; centhaquin 0.05 mg/kg i.v.", "result": 15.64, "unit": "%"}, {"measurement": "reduction in HR", "setting": "[4]; centhaquin 0.05 mg/kg i.v.", "result": 10.49, "unit": "%"}, {"measurement": "decrease in MAP", "setting": "[4]; centhaquin 0.15 mg/kg i.v.", "result": 25.15, "unit": "%"}, {"measurement": "reduction in HR", "setting": "[4]; centhaquin 0.15 mg/kg i.v.", "result": 12.57, "unit": "%"}, {"measurement": "decrease in MAP", "setting": "[4]; centhaquin 0.45 mg/kg i.v.", "result": 28.08, "unit": "%"}, {"measurement": "reduction in HR", "setting": "[4]; centhaquin 0.45 mg/kg i.v.", "result": 13.34, "unit": "%"}, {"measurement": "dose-response effect on MAP, PP and HR", "setting": "[4]", "result": "dose-dependent fall in MAP, and a decrease in HR"}, {"measurement": "dose-response effect on MAP, PP and HR", "setting": "[4]; listed as centhaquin", "result": "dose-dependent hypotension and bradycardia"}, {"measurement": "LD50", "setting": "[5]", "result": 600, "unit": "mg/kg"}, {"measurement": "effect of repeated administration on 5-HT1 receptors in the medulla", "setting": "[6]", "result": "up-regulation"}, {"measurement": "effect on MAP and HR", "setting": "[7]; centhaquin 0.05 to 0.2 mg/kg, iv, urethane anesthetized rats", "result": "dose-dependent decrease"}, {"measurement": "effect on MAP or HR", "setting": "[7]; cervical sectioned rats, intravenously administered", "result": "did not produce any effect"}, {"measurement": "effect on MAP or HR", "setting": "[7]; intrathecal administration", "result": "did not produce any effect"}, {"measurement": "norepinephrine release evoked by potassium chloride and dimethyl phenyl piperazinium chloride", "setting": "[8]", "result": "inhibited"}, {"measurement": "spontaneous release of norepinephrine", "setting": "[8]", "result": "initial increase followed by decrease"}, {"measurement": "effect of chronic administration on α-adrenergic receptors in the hypothalamus and medulla", "setting": "[9]", "result": "up-regulation"}, {"measurement": "analgesic effect relative to 4 mg/kg dose of morphine", "setting": "[10]; centhaquin 0.3 mg/kg", "result": "comparable"}, {"measurement": "analgesic effect relative to 4 mg/kg dose of morphine", "setting": "[10]; centhaquin 0.9 mg/kg", "result": "significantly greater"}, {"measurement": "analgesia (tail-flick latency)", "setting": "[10]; centhaquin 0.1, 0.3 and 0.9 mg/kg", "result": "dose-dependent analgesia"}, {"measurement": "effect on morphine analgesia", "setting": "[10]; centhaquin 0.3 and 0.9 mg/kg", "result": "potentiated"}]}
{"smiles": "Clc1cccc(Cl)c1NC1=NCCN1", "note": "[Clonidine, N-(2,6-dichlorophenyl)-4,5-dihydro-1H-imidazol-2-amine]", "values": [{"measurement": "changes in arterial blood pH, pO2, pCO2, Na^+, K^+, lactate and hematocrit", "setting": "[2]", "result": "no significant changes"}, {"measurement": "Hct", "setting": "[2]", "result": "50 ± 4", "unit": "%"}, {"measurement": "K^+", "setting": "[2]", "result": "4.3 ± 0.6", "unit": "mmol/L"}, {"measurement": "Na^+", "setting": "[2]", "result": "139 ± 2", "unit": "mmol/L"}, {"measurement": "arterial blood pH", "setting": "[2]", "result": "7.28 ± 0.03"}, {"measurement": "pCO2", "setting": "[2]", "result": "46 ± 4", "unit": "mmHg"}, {"measurement": "pO2", "setting": "[2]", "result": "100 ± 14", "unit": "mmHg"}, {"measurement": "decrease in HR", "setting": "[4]; clonidine 10 μg/kg", "result": 20.84, "unit": "%"}, {"measurement": "fall in MAP", "setting": "[4]; clonidine 10 μg/kg i.v.", "result": 24.02, "unit": "%"}, {"measurement": "decrease in PP", "setting": "[4]; clonidine 10 μg/kg", "result": 33.81, "unit": "%"}, {"measurement": "decrease in HR", "setting": "[4]; clonidine 30 μg/kg", "result": 23.18, "unit": "%"}, {"measurement": "fall in MAP", "setting": "[4]; clonidine 30 μg/kg i.v.", "result": 26.15, "unit": "%"}, {"measurement": "decrease in PP", "setting": "[4]; clonidine 30 μg/kg", "result": 36.39, "unit": "%"}, {"measurement": "decrease in HR", "setting": "[4]; clonidine 90 μg/kg", "result": 23.19, "unit": "%"}, {"measurement": "fall in MAP", "setting": "[4]; clonidine 90 μg/kg i.v.", "result": 19.48, "unit": "%"}, {"measurement": "decrease in PP", "setting": "[4]; clonidine 90 μg/kg", "result": 34.27, "unit": "%"}, {"measurement": "dose-response effect on MAP, PP and HR", "setting": "[4]", "result": "dose-dependent hypotension and bradycardia; also recorded: dose-dependent fall in mean arterial pressure (MAP), pulse pressure (PP), and a decrease in heart rate (HR)"}, {"measurement": "effect of repeated administration on 5-HT1 receptors in the medulla", "setting": "[6]", "result": "up-regulation"}, {"measurement": "effect on blood pressure and heart rate", "setting": "[7]; clonidine given intravenously in cervical sectioned rats", "result": "did not produce any effect"}, {"measurement": "binding affinity for α2-adrenergic receptors relative to α1-adrenoreceptors", "setting": "[11]", "result": "approximately 10 fold"}, {"measurement": "effect of chronic administration on α-adrenergic receptors in the hypothalamus and medulla", "setting": "[9]", "result": "up-regulation"}, {"measurement": "EC50", "setting": "[12]; ET-1 (4 nM) treated aorta", "result": "1.81 ± 0.04", "unit": "µM"}, {"measurement": "EC50", "setting": "[12]; vehicle treated aorta", "result": "2.64 ± 0.02", "unit": "µM"}, {"measurement": "percent contraction of aorta", "setting": "[12]; clonidine 2 μM, ET-1 (4 nM) treated aorta", "result": "75.95±1.36", "unit": "%"}, {"measurement": "percent contraction of aorta", "setting": "[12]; clonidine 2 μM, vehicle treated aorta", "result": "51.017±1.70", "unit": "%"}, {"measurement": "percent contraction of aorta", "setting": "[12]; clonidine 4 μM, ET-1 treated aorta", "result": "96.83±0.54", "unit": "%"}, {"measurement": "percent contraction of aorta", "setting": "[12]; clonidine 4 μM, vehicle treated aorta", "result": "80.27±2.48", "unit": "%"}, {"measurement": "contraction in rat abdominal aortic ring", "setting": "[12]; clonidine 0.25-10 μM", "result": "dose-dependent (0.25-10 μM) contraction"}]}
